Test [1] has as its system Schistosoma mansoni. Description: In vitro activity on S. mansoni schistosomula at 50 uM. The format is functional, organism-based. The arrangement: test concentration 50 uM, temperature 37 degree C, time incubation 72 h. The note with it: Puerto Rican.
Test [2] concerns Schistosoma mansoni. The test can be described thus: In vitro activity on S. mansoni schistosomula at 10 uM. The format is functional, organism-based. The arrangement: test concentration 10 uM, temperature 37 degree C, time incubation 72 h. As to conditions: Puerto Rican.

The structures appear in SMILES notation. Calls of active or inactive are those of the source. No rule for the calls is given here. Square brackets hold non-standard residues; d marks the D form. Peptide text beside a SMILES is read from it. * marks the point of attachment. Benzoyl(4-tBu) = CC(C)(C)c1ccc(C(=O)*)cc1; Lys(Et2) = CCN(CC)CCCC[C@H](N)C(=O)O; Cbz = O=C(OCc1ccccc1)*

Consider `O=C(/C=C/c1ccc(CN(CCO)CCc2c[nH]c3ccccc23)cc1)NO`, for which the In vitro activity entry in the test on Schistosoma mansoni [1] was “Active”. In addition, the In vitro activity result with Schistosoma mansoni [2] is “inactive”.
In the same order, the values of `CNC(=O)c1ccc(Nc2nc(OC3CCCC3)c3c(-c4ccc5nc(C)oc5c4)c[nH]c3n2)c(OC)c1` are “inactive” and “inactive”.
The matching figures for `CC(O)(CC(=O)O)CC(=O)O`: “inactive” and “inactive”.
In the same order, the values of `CN(C)Cc1c(C(=O)NCCOc2ccc(C(=O)NO)cc2)oc2ccccc12` are “Active” and “inactive”.
On to `N[C@H]1C[C@@H]1c1ccc(-c2cccc(O)c2)cc1`, for which the In vitro activity result in the test with Schistosoma mansoni [1] is “Active”. The In vitro activity entry in the test with Schistosoma mansoni [2] was “inactive”.
The matching figures for `Nc1ccc(-c2ccc(F)cc2)cc1NC(=O)C1CCOCC1`: “inactive” and “inactive”.
Consider `C[C@]12CC[C@H](O)C[C@H]1CC[C@@H]1[C@@H]2CC[C@]2(C)[C@@H](C3=CC(=O)OC3)CC[C@]12O`, for which, in the test with Schistosoma mansoni [1], the In vitro activity entry was “Active”. In addition, in the test on Schistosoma mansoni [2], the In vitro activity result was “inactive”.
Consider `O=C(O[C@H]1[C@@H]2C=CO[C@@H](O[C@@H]3O[C@H](CO)[C@@H](O)[C@H](O)[C@H]3O)[C@@H]2[C@@]2(CO)O[C@@H]12)c1ccc(O)cc1`, for which the In vitro activity result with Schistosoma mansoni [1] and in the test on Schistosoma mansoni [2] was “inactive” in each case.
Regarding `O=C1NC(=O)/C(=C/c2ccc3nccnc3c2)S1`, in the test with Schistosoma mansoni [1], the In vitro activity entry is “Active”. In addition, in the test with Schistosoma mansoni [2], the In vitro activity entry is “inactive”.
The matching figures for `c1ccc(-c2n[nH]cc2-c2ccnc3ccccc23)nc1`: “inactive” and “inactive”.
In the same order, the values of `O=C(NC1CCNCC1)c1n[nH]cc1NC(=O)c1c(Cl)cccc1Cl` are “inactive” and “inactive”.
In the same order, the values of `CC(=O)N1CCc2c(c(Nc3ccc(-c4cnn(C)c4)cc3F)nn2[C@H]2CCOC2)C1` are “inactive” and “inactive”.
With `Cc1cccc(-c2nn3c(c2-c2ccnc4ccc(C(N)=O)cc24)CCC3)n1`, the In vitro activity entry in the test on Schistosoma mansoni [1] and in the test on Schistosoma mansoni [2] was “inactive” each time.
As for `Oc1ccc(Nc2nc(-c3ccc(Cl)cc3)cs2)cc1`, the In vitro activity result in the test on Schistosoma mansoni [1] is “Active”. Moreover, the In vitro activity entry in the test on Schistosoma mansoni [2] is “inactive”.
The matching figures for `O=C(/C=C/c1ccc2c(ccn2S(=O)(=O)c2ccccc2)c1)NO`: “Active” and “inactive”.
As to `COc1ncc(-c2ccc3nc(N)n(-c4ccccc4C(F)(F)F)c(=O)c3c2)cc1S(=O)(=O)Nc1ccc(F)cc1F`, the In vitro activity entry in the test on Schistosoma mansoni [1] was “Active”. The In vitro activity result with Schistosoma mansoni [2] is “inactive”.
In the same order, the values of `CC(C)c1cccc(=O)c(O)c1` are “inactive” and “inactive”.
In the same order, the values of `Cc1cc(/N=N/c2cc(S(=O)(=O)O)c(C)cc2C)c(N)cc1O` are “inactive” and “inactive”.
In the same order, the values of `Nc1nc(Nc2ccc(S(N)(=O)=O)cc2)nn1C(=O)c1c(F)cccc1F` are “inactive” and “inactive”.
On to `O=C(NO)c1cnc(NC2(c3ccccc3)CC2)nc1`, for which the In vitro activity entry in the test with Schistosoma mansoni [1] and in the test on Schistosoma mansoni [2] was “inactive” throughout.
`C[S+]([O-])c1ccc(-c2nc(-c3ccc(F)cc3)c(-c3ccncc3)[nH]2)cc1` (stereo unspecified): the In vitro activity result in the test with Schistosoma mansoni [1] and in the test on Schistosoma mansoni [2] was “inactive” in each case.
As for `CC(C)(C)c1cnc(CSc2cnc(NC(=O)C3CCNCC3)s2)o1`, the In vitro activity entry in the test with Schistosoma mansoni [1] and in the test on Schistosoma mansoni [2] was “inactive” throughout.
In the case of `CN[C@@H]1C[C@H]2O[C@@](C)([C@@H]1OC)n1c3ccccc3c3c4c(c5c6ccccc6n2c5c31)C(=O)NC4`, the In vitro activity result in the test with Schistosoma mansoni [1] and in the test on Schistosoma mansoni [2] was “Active” in each case.
Take `NC(=O)c1ccc(-c2nc(-c3ccccn3)c(-c3ccc4c(c3)OCO4)[nH]2)cc1`: the In vitro activity result in the test on Schistosoma mansoni [1] was “Active”. For the same compound, the In vitro activity entry in the test with Schistosoma mansoni [2] is “inactive”.
The matching figures for `CC(C)NCCCn1c(Sc2cc3c(cc2I)OCO3)nc2c(N)ncnc21`: “Active” and “inactive”.
The matching figures for `O=C(CCCCCCC(=O)Nc1cccnc1)NO`: “inactive” and “inactive”.
The matching figures for `COc1ccc(-c2nc(N)ncc2-c2csc(C)n2)c(O)c1`: “inactive” and “inactive”.
As for `O=C1NCCCc2c1oc1ccc(O)cc21`, the In vitro activity entry in the test with Schistosoma mansoni [1] and in the test with Schistosoma mansoni [2] was “inactive” each time.
`CC(=O)Nc1ccc(C(=O)Nc2cc(-c3cccs3)ccc2N)cc1`: the In vitro activity result in the test with Schistosoma mansoni [1] and in the test with Schistosoma mansoni [2] was “inactive” in each case.
On to `O=C(CCCCCCNC(=O)c1cnc(N(c2ccccc2)c2ccccc2)nc1)NO`, for which the In vitro activity entry with Schistosoma mansoni [1] and in the test on Schistosoma mansoni [2] was “inactive” in each case.
In the case of `Cc1nccc(-c2cn(Cc3ccccc3)c3cnccc23)n1`, the In vitro activity entry in the test on Schistosoma mansoni [1] is “Active”. For the same compound, the In vitro activity result in the test on Schistosoma mansoni [2] is “inactive”.
For `CN1CCC(NC(=O)c2cc(-c3c(O)cc(O)cc3Oc3ccc([N+](=O)[O-])cc3)on2)CC1`, the In vitro activity entry with Schistosoma mansoni [1] and in the test with Schistosoma mansoni [2] was “inactive” in each case.
`CC(C)C[C@@H](C=O)NC(=O)[C@H](CC(C)C)NC(=O)[C@H](CC(C)C)NC(=O)OCc1ccccc1` (Cbz-Leu-Leu-Leu-aldehyde): the In vitro activity result in the test with Schistosoma mansoni [1] is “Active”. Also, the In vitro activity result in the test with Schistosoma mansoni [2] was “inactive”.
The matching figures for `Cc1cc(Nc2cc(N3CCN(C)CC3)nc(Sc3ccc(NC(=O)C4CC4)cc3)n2)n[nH]1`: “Active” and “inactive”.
Regarding `O=C(O)C[C@@H]1C(=O)O[C@H]2[C@@H]3OC(=O)c4cc(O)c(O)c(O)c4-c4c(cc(O)c(O)c4O)C(=O)OC[C@H]2O[C@@H](OC(=O)c2cc(O)c(O)c(O)c2)[C@@H]3OC(=O)c2cc(O)c(O)c3c2[C@H]1[C@H](O)C(=O)O3`, the In vitro activity entry in the test on Schistosoma mansoni [1] and with Schistosoma mansoni [2] was “inactive” throughout.
For `CCCCc1nc2cc(/C=C/C(=O)NO)ccc2n1CCN(CC)CC`, the In vitro activity result in the test with Schistosoma mansoni [1] and with Schistosoma mansoni [2] was “inactive” in each case.
As for `CCN1/C(=C/C(C)=O)Sc2ccc(O)cc21`, the In vitro activity result in the test on Schistosoma mansoni [1] and with Schistosoma mansoni [2] was “inactive” throughout.
As for `CNC(=O)c1c(F)cccc1Nc1nc(Nc2cc3c(cc2OC)CCN3C(=O)CN(C)C)nc2[nH]ccc12`, in the test with Schistosoma mansoni [1], the In vitro activity result is “Active”. Further, in the test with Schistosoma mansoni [2], the In vitro activity result was “inactive”.
The matching figures for `CSc1cccc(Nc2ncc3cc(-c4c(Cl)cccc4Cl)c(=O)n(C)c3n2)c1`: “inactive” and “inactive”.
In the same order, the values of `Cc1cccc(-c2[nH]c(C(C)(C)C)nc2-c2ccc3c(c2)OCO3)n1` are “inactive” and “inactive”.
On to `Nc1nc(N)c2nc(-c3cccc(O)c3)c(-c3cccc(O)c3)nc2n1`, for which the In vitro activity entry in the test with Schistosoma mansoni [1] and in the test on Schistosoma mansoni [2] was “inactive” in each case.
Turning to `COc1ccc(-c2c(-c3ccc(O)cc3O)n[nH]c2C)cc1`, the In vitro activity entry in the test on Schistosoma mansoni [1] and in the test on Schistosoma mansoni [2] was “inactive” each time.
Regarding `CN(C)CCCn1cc(C2=C(c3c[nH]c4ccccc34)C(=O)NC2=O)c2ccccc21`, the In vitro activity result in the test on Schistosoma mansoni [1] is “Active”. Besides, the In vitro activity entry with Schistosoma mansoni [2] is “inactive”.
The matching figures for `CCN(CC)Cc1ccc2cc(COC(=O)Nc3ccc(C(=O)NO)cc3)ccc2c1`: “inactive” and “inactive”.
As for `COc1ccc2c(c1)[nH]c1c(C)nccc12`, the In vitro activity entry with Schistosoma mansoni [1] and in the test with Schistosoma mansoni [2] was “inactive” in each case.
Regarding `CC[C@@]1(O)C(=O)OCc2c1cc1n(c2=O)Cc2cc3ccccc3nc2-1`, in the test with Schistosoma mansoni [1], the In vitro activity entry was “Active”. The In vitro activity entry in the test with Schistosoma mansoni [2] was “inactive”.
The matching figures for `CC1(C)Cc2c(sc(NC(=S)NC(=O)c3ccccc3)c2C(=O)O)CO1`: “inactive” and “inactive”.
On to `Cc1nc2c(OCc3ccccc3)cccn2c1CC#N`, for which the In vitro activity entry in the test on Schistosoma mansoni [1] and with Schistosoma mansoni [2] was “inactive” each time.
On to `Nc1nc2c(ncn2[C@@H]2O[C@H](COP(=O)(O)OP(=O)(O)O)[C@@H](O)[C@H]2O)c(=O)[nH]1`, for which the In vitro activity result in the test on Schistosoma mansoni [1] and in the test on Schistosoma mansoni [2] was “inactive” each time.
Regarding `O=C(CCCCCN1C(=O)c2cccc3cccc(c23)C1=O)NO`, the In vitro activity result in the test with Schistosoma mansoni [1] and with Schistosoma mansoni [2] was “inactive” throughout.
As to `COc1cc(Nc2ncc(F)c(Nc3ccc4c(n3)NC(=O)C(C)(C)O4)n2)cc(OC)c1OC`, the In vitro activity result in the test on Schistosoma mansoni [1] and in the test with Schistosoma mansoni [2] was “inactive” throughout.
On to `CCOC(=O)NCCCC(=O)NCCc1ccccc1`, for which the In vitro activity entry in the test on Schistosoma mansoni [1] and in the test on Schistosoma mansoni [2] was “inactive” each time.
With `COc1ccc(F)c(F)c1C(=O)c1cnc(NC2CCN(S(C)(=O)=O)CC2)nc1N`, the In vitro activity result in the test with Schistosoma mansoni [1] and in the test with Schistosoma mansoni [2] was “inactive” each time.
With `CCN(CC)CCCC[C@H](NC(=O)[C@H](CC(C)C)NC(=O)[C@H](C)NC(=O)[C@H](Cc1ccccc1)NC(=O)c1ccc(C(C)(C)C)cc1)C(=O)N[C@@H](CO)C(=O)OC` ({Benzoyl(4-tBu)}-FAL[Lys(Et2)]S-OMe), the In vitro activity result in the test on Schistosoma mansoni [1] and in the test with Schistosoma mansoni [2] was “inactive” in each case.
In the case of `C#Cc1cccc(Nc2ncnc3cc(OC)c(OCCCCCCC(=O)NO)cc23)c1`, the In vitro activity result with Schistosoma mansoni [1] and in the test with Schistosoma mansoni [2] was “inactive” throughout.
In the case of `CCc1cc(-c2[nH]nc(C)c2-c2ccc3c(c2)OCCO3)c(O)cc1O`, the In vitro activity entry in the test on Schistosoma mansoni [1] was “Active”. Besides, in the test with Schistosoma mansoni [2], the In vitro activity result is “inactive”.
In the same order, the values of `O=C(c1ccc(/C=C/c2n[nH]c3ccccc23)cc1)N1CCNCC1` are “Active” and “inactive”.
Consider `CN1CCN(C(=O)CN[C@H]2C[C@@H]2c2ccc(OCc3ccccc3)cc2)CC1`, for which the In vitro activity entry in the test with Schistosoma mansoni [1] is “Active”. The In vitro activity entry in the test with Schistosoma mansoni [2] was “inactive”.
